Source: article PMC8175350, “Drug repurposing screens identify chemical entities for the development of COVID-19 interventions” (Nature Communications, 2021)
Where two headings read alike, the source gives them in different places.

Tests used:
SARS-CoV-2 [1] = experiment: microbe, parasite or virus in culture; type: cell-based; settings: for Emax: Severe acute respiratory syndrome coronavirus 2, HeLa-ACE2, 24 h, curve-fit effect at infinite concentration, average, read-out: HeLa-ACE2 CoV-2 Sinf Average; for EC50: Severe acute respiratory syndrome coronavirus 2, HeLa-ACE2, read-out: HeLa-ACE2 CoV-2 EC50 GeoMean
[2] = Uninfected HeLa-ACE2 24 h live/dead cytotoxicity counter screen; type: cell-based, human; settings: human, uninfected HeLa-ACE2 cells
HeLa-ACE2 cells [3] = experiment: as above; type: cell-based, human; settings: for HeLa-ACE2 uninfected cytotoxicity Sinf Average: curve-fit effect at infinite concentration; for HeLa-ACE2 uninfected cytotoxicity Sinf Average (%): Sinf average of the curves
SARS-CoV-2 [4] = experiment: microbe, parasite or virus in culture; type: cell-based; settings: for Emax: Severe acute respiratory syndrome coronavirus 2, Calu-3, 48 h; for EC50: read-out: Calu-3 CoV-2 EC50 GeoMean
HeLa-ACE2 cells [5] = experiment: cells; settings: Homo sapiens; for Emax: HeLa-ACE2, 24 h, read-out: HeLa-ACE2 cell count Sinf Average
Calu-3 cells [6] = experiment: cells; settings: Homo sapiens; for Emax: Calu-3, 48 h
in vitro = settings: human
Calu-3 cells [7] = experiment: Uninfected Calu-3 48 h Cell-Titer Glo cytotoxicity counter screen; settings: for Calu-3 uninfected cytotoxicity Sinf Average: curve-fit effect at infinite concentration
Calu-3 cells [8] = settings: for Calu-3 uninfected cytotoxicity Sinf Average / Calu-3 uninfected cytotoxicity Sinf Average (%): human
[9] = uninfected cells, Fig. 2b group, read-out: HeLa-ACE2 CC50
[10] = unrounded geometric mean, read-out: HeLa-ACE2 uninfected cytotoxicity CC50 GeoMean
[11] = curve-fit effect at infinite concentration, average, read-out: Calu-3 CoV-2 Sinf Average
[12] = Severe acute respiratory syndrome coronavirus 2, Calu-3, unrounded geometric mean
[13] = HeLa-ACE2, read-out: HeLa-ACE2 cell count EC50 GeoMean, unrounded geometric mean
[14] = read-out: Calu-3 cell count Sinf Average
[15] = Calu-3, read-out: Calu-3 cell count EC50 GeoMean, unrounded geometric mean
[16] = Calu-3 uninfected cytotoxicity CC50 GeoMean, unrounded geometric mean
[17] = geometric mean of replicates, read-out: HeLa-ACE2 uninfected cytotoxicity CC50 GeoMean
[18] = Sinf average of the curves, read-out: Calu-3 CoV-2 Sinf Average (%)
[19] = Severe acute respiratory syndrome coronavirus 2, Calu-3, geometric mean of replicates
[20] = HeLa-ACE2, read-out: HeLa-ACE2 cell count EC50 GeoMean (µM), geometric mean of replicates
[21] = read-out: Calu-3 cell count Sinf Average (%)
[22] = Calu-3, read-out: Calu-3 cell count EC50 GeoMean (µM), geometric mean of replicates
[23] = Calu-3 uninfected cytotoxicity CC50 GeoMean (µM)

Row | Compound | Emax (SARS-CoV-2 [1]) [%] | EC50 (SARS-CoV-2 [1]; unrounded geometric mean) [nM] | CC50 at 24 h [2, 9] [nM] | CC50 at 24 h [2, 10] [nM] | HeLa-ACE2 uninfected cytotoxicity Sinf Average (HeLa-ACE2 cells [3]) [%] | Emax (SARS-CoV-2 [4]; [11]) [%] | EC50 (SARS-CoV-2 [4]; [12]) [nM] | Emax (HeLa-ACE2 cells [5]) [%] | EC50 (HeLa-ACE2 cells [5]; [13]) [µM] | Emax (Calu-3 cells [6]; [14]) [%] | EC50 (Calu-3 cells [6]; [15]) [µM] | CC50 (in vitro; [16]) [µM] | Calu-3 uninfected cytotoxicity Sinf Average (Calu-3 cells [7]) [%] | EC50 (SARS-CoV-2 [1]; geometric mean of replicates) [nM] | CC50 at 24 h [2, 17] [nM] | Emax (SARS-CoV-2 [4]; [18]) [%] | EC50 (SARS-CoV-2 [4]; [19]) [nM] | EC50 (HeLa-ACE2 cells [5]; [20]) [µM] | Emax (Calu-3 cells [6]; [21]) [%] | EC50 (Calu-3 cells [6]; [22]) [µM] | other results
1 | CC(=O)O[C@H]1C[C@H](O[C@H]2[C@@H](O)C[C@H](O[C@H]3[C@@H](O)C[C@H](O[C@H]4CC[C@@]5(C)[C@H](CC[C@@H]6[C@@H]5C[C@@H](O)[C@]5(C)[C@@H](C7=CC(=O)OC7)CC[C@]65O)C4)O[C@@H]3C)O[C@@H]2C)O[C@H](C)[C@H]1O[C@@H]1O[C@H](CO)[C@@H](O)[C@H](O)[C@H]1O [Lanatoside C] | 97 | 206 | ≤ 3000 | 1350 | -101 | 86 | 194 | 96 | 0.379 | -33 | > 9.98 | > 6.21 | -28 | – | – | – | – | – | – | – | –
2 | CC[C@H]1CN2CCc3cc(OC)c(OC)cc3[C@@H]2C[C@@H]1C[C@H]1NCCc2cc(O)c(OC)cc21 [Cephaeline] | 99 | 16.8 | ≤ 3000 | 212 | -100 | 96 | 142 | 107 | 0.309 | 100 | > 6.92 | > 4.96 | -68 | – | – | – | – | – | – | – | –
3 | CC[C@@H]1/C=C/C=C/C[C@H](C)[C@@H](O)[C@](C)(O)C(=O)[C@H](C)[C@@H](O)[C@H](C)C(=O)[C@H](C)[C@@H](O)[C@H](C)/C=C/C(=O)O[C@H]2[C@@H](C)[C@@H](CC1)O[C@]1(O[C@H](C[C@H](C)O)[C@H](C)CC1=O)[C@@H]2C [Oligomycin B] | – | > 9590 | – | 22000 | -100 | 93 | < 5.39 | 100 | > 8.16 | 50 | > 0.311 | > 24.5 | -89 | – | – | – | – | – | – | – | –
4 | CCCCCCCCCCCCCC(=O)O[C@@H]1[C@@H](C)[C@@]2(O)[C@@H](C=C(CO)C[C@]3(O)C(=O)C(C)=C[C@@H]23)[C@@H]2C(C)(C)[C@]12OC(C)=O [Phorbol 12-myristate 13-acetate] | 40 | – | ≤ 3000 | > 201 | -58 | 59 | 16.2 | – | > 9.59 | 100 | > 9.98 | 22.5 | -100 | – | – | – | – | – | – | – | –
5 | C[C@@H]1C[C@@H]([C@H](O)CC2CC(=O)NC(=O)C2)C(=O)[C@@H](C)C1 [Cycloheximide] | 101 | 634 | ≤ 3000 | 1470 | -80 | 98 | 195 | 100 | > 9.44 | 50 | 0.268 | > 2.43 | – | – | – | – | – | – | – | – | Calu-3 uninfected cytotoxicity Sinf Average (Calu-3 cells [8]): -39%
6 | CC[C@H]1CN2CCc3cc(OC)c(OC)cc3[C@@H]2C[C@@H]1C[C@H]1NCCc2cc(OC)c(OC)cc21 [Emetine] | 100 | 60.1 | ≤ 3000 | 340 | -99 | 100 | 444 | 98 | 0.783 | 78 | > 3.56 | > 8.87 | – | – | – | – | – | – | – | – | Calu-3 uninfected cytotoxicity Sinf Average (Calu-3 cells [8]): -47%
7 | CO[C@H]1C[C@H](O[C@H]2CC[C@]3(C=O)[C@H]4CC[C@]5(C)[C@@H](C6=CC(=O)OC6)CC[C@]5(O)[C@@H]4CC[C@]3(O)C2)O[C@H](C)[C@H]1O [Cymarine] | 93 | 237 | ≤ 3000 | 287 | -95 | 87 | 135 | 100 | 0.311 | -100 | > 9.98 | > 5.87 | -40 | – | – | – | – | – | – | – | –
8 | O=c1[nH]ccc2cc(OC3CCNCC3)ccc12 [SAR-407899] | – | – | – | – | – | – | – | – | – | – | – | – | – | > 9590 | > 38700 | 54 | > 3850 | > 9.59 | 97 | 2.72 | HeLa-ACE2 uninfected cytotoxicity Sinf Average (%) (HeLa-ACE2 cells [3]): -100%; uninfected Calu-3 CC50 [μM] (Calu-3 cells [8]): > 29.867 ×÷ 1 (n=3) μM; Calu-3 uninfected cytotoxicity Sinf Average (%) (Calu-3 cells [8]; 48 h): 0%; CC50 at 48 h (in vitro; [23]): > 29.9 µM
9 | CCCCCCCC/C=C/CCCCCCCC(=O)OC[C@H]1O[C@@H](n2ccc(N)nc2=O)C(F)(F)[C@@H]1O [Gemcitabine elaidate] | – | > 9590 | ≤ 3000 | < 5.82 | -53 | 90 | 324 | 51 | < 0.0122 | 48 | > 3.7 | – | – | – | – | – | – | – | – | – | uninfected Calu-3 CC50 (Calu-3 cells [8]): > 29.867 ×÷ 1 (n=3) μM; Calu-3 uninfected cytotoxicity Sinf Average (Calu-3 cells [8]; 48 h): -100%; CC50 at 48 h (in vitro; Calu-3 uninfected cytotoxicity CC50 GeoMean): > 29.9 µM
10 | CSc1ccc(CN2CCCC(Nc3ccc4[nH]ncc4c3)C2)cc1 (stereo not shown) [INS-117548] | – | – | – | – | – | – | – | – | – | – | – | – | – | > 9590 | > 39800 | 77 | > 3550 | > 9.59 | 55 | 0.31 | HeLa-ACE2 uninfected cytotoxicity Sinf Average (%) (HeLa-ACE2 cells [3]): -100%; uninfected Calu-3 CC50 [μM] (Calu-3 cells [8]): > 29.875 ×÷ 1 (n=2) μM; Calu-3 uninfected cytotoxicity Sinf Average (%) (Calu-3 cells [8]; 48 h): -92%; CC50 at 48 h (in vitro; [23]): > 29.9 µM
11 | O=c1[nH]c2ccc(C(F)(F)F)cc2c(-c2cc(Cl)ccc2O)c1CCO [BMS-223131] | – | – | – | – | – | – | – | – | – | – | – | – | – | > 9590 | 21400 | 100 | 5140 | > 9.59 | 100 | > 9.98 | HeLa-ACE2 uninfected cytotoxicity Sinf Average (%) (HeLa-ACE2 cells [3]): -100%; uninfected Calu-3 CC50 [μM] (Calu-3 cells [8]): > 29.867 ×÷ 1 (n=3) μM; Calu-3 uninfected cytotoxicity Sinf Average (%) (Calu-3 cells [8]; 48 h): -100%; CC50 at 48 h (in vitro; [23]): > 29.9 µM
12 | CC(C)(C)c1ccc(CSc2cnn(C(C)(C)C)c(=O)c2Cl)cc1 [Pyridaben] | – | – | – | – | – | – | – | – | – | – | – | – | – | > 9590 | > 39800 | 93 | 205 | > 9.59 | 47 | 0.345 | CC50 (in vitro; Calu-3 uninfected cytotoxicity CC50 GeoMean (µM), geometric mean of replicates): > 8.99 µM; Calu-3 uninfected cytotoxicity Sinf Average (%) (Calu-3 cells [7]; Sinf average of the curves): -94%
